Patent US12582731B2, “Method to decontaminate solid surface” (BIOMONETA RESEARCH PVT LTD, priority 2022, dated 2026)

Tests used:
[1] = test system: microbial load; test: Microbial load reduction on cotton cloth coated with quaternary ammonium compound alone; type: cell-based; conditions: no electric field
Protocol: The solid surface (cotton cloth) was suspended in a solution containing cetyltrimethylammonium bromide (CTAB) or alkyl dimethyl benzyl ammonium chloride (benzalkonium chloride) at various concentrations for about 2 hours. The solid surfaces were then heat dried in a furnace where the temperature was set at about 80° C., for about 8 hours. Once dried, the solid surfaces coated with QAC were ready to be used for various applications.
Reduction in microbial load was analysed at different concentrations of QACs.

[2] = test system: microbial load; test: Microbial load reduction on QAC-coated cotton cloth with or without electric field; type: cell-based
Protocol: The effect of QAC coating and electric field application on flexible solid surfaces was analysed. The solid surface analysed was fabric (cotton cloth). The procedure for coating of QAC (CTAB or benzalkonium chloride) onto the cotton cloth was identical to the procedure described in Example 1. The final coated amount of QAC (CTAB or benzalkonium chloride) was between 0.01-0.05 mg/cm^2 of the solid surface. The electric field in this experiment was applied via. switch mode power supply (SMPS) with a voltage of 4 kV/cm coupled with a capacitance of 0.05 μF for various time-periods.
Reduction in microbial load was analysed using different methods.

alkyl dimethyl benzyl ammonium chloride [benzalkonium chloride]
Microbial Load Reduction (Log10 Scale) ([1]; cotton cloth coated with 1% w/v, 0 mins): 0.00 Log10 | Microbial Load Reduction (Log10 Scale) ([1]; cotton cloth coated with 1% w/v, 10 mins): 0.82 Log10 | Microbial Load Reduction (Log10 Scale) ([1]; cotton cloth coated with 1% w/v, 30 mins): 1.70 Log10 | Microbial Load Reduction (Log10 Scale) ([1]; cotton cloth coated with 1% w/v, 45 mins): 4.57 Log10 | Microbial Load Reduction (Log10 Scale) ([1]; cotton cloth coated with 1% w/v, 60 mins): 7.48 Log10 | Microbial Load Reduction (Log10 Scale) ([1]; cotton cloth coated with 1% w/v, 90 mins): 7.48 Log10 | Microbial Load Reduction (Log10 Scale) ([1]; cotton cloth coated with 10% w/v, 0 mins): 0.00 Log10 | Microbial Load Reduction (Log10 Scale) ([1]; cotton cloth coated with 10% w/v, 10 mins): 0.92 Log10 | Microbial Load Reduction (Log10 Scale) ([1]; cotton cloth coated with 10% w/v, 30 mins): 3.10 Log10 | Microbial Load Reduction (Log10 Scale) ([1]; cotton cloth coated with 10% w/v, 45 mins): 7.30 Log10 | Microbial Load Reduction (Log10 Scale) ([1]; cotton cloth coated with 10% w/v, 60 mins): 7.30 Log10 | Microbial Load Reduction (Log10 Scale) ([1]; cotton cloth coated with 10% w/v, 90 mins): 7.30 Log10 | Microbial Load Reduction (Log10 Scale) ([2]; cotton cloth coated with 1% w/v, With Electric Field (SMPS, 4 kV/cm, 0.05 μF), 0 mins): 0.00 Log10 | Microbial Load Reduction (Log10 Scale) ([2]; cotton cloth coated with 1% w/v, With Electric Field (SMPS, 4 kV/cm, 0.05 μF), 10 mins): 1.51 Log10 | Microbial Load Reduction (Log10 Scale) ([2]; cotton cloth coated with 1% w/v, With Electric Field (SMPS, 4 kV/cm, 0.05 μF), 30 mins): 2.39 Log10 | Microbial Load Reduction (Log10 Scale) ([2]; cotton cloth coated with 1% w/v, Without Electric Field, 0 mins): 0.00 Log10 | Microbial Load Reduction (Log10 Scale) ([2]; cotton cloth coated with 1% w/v, Without Electric Field, 10 mins): 0.82 Log10 | Microbial Load Reduction (Log10 Scale) ([2]; cotton cloth coated with 1% w/v, Without Electric Field, 30 mins): 1.70 Log10 | Microbial Load Reduction (Log10 Scale) ([2]; cotton cloth coated with 10% w/v, With Electric Field (SMPS, 4 kV/cm, 0.05 μF), 0 mins): 0.00 Log10 | Microbial Load Reduction (Log10 Scale) ([2]; cotton cloth coated with 10% w/v, With Electric Field (SMPS, 4 kV/cm, 0.05 μF), 10 mins): 1.16 Log10 | Microbial Load Reduction (Log10 Scale) ([2]; cotton cloth coated with 10% w/v, With Electric Field (SMPS, 4 kV/cm, 0.05 μF), 30 mins): 3.03 Log10 | Microbial Load Reduction (Log10 Scale) ([2]; cotton cloth coated with 10% w/v, Without Electric Field, 0 mins): 0.00 Log10 | Microbial Load Reduction (Log10 Scale) ([2]; cotton cloth coated with 10% w/v, Without Electric Field, 10 mins): 0.92 Log10 | Microbial Load Reduction (Log10 Scale) ([2]; cotton cloth coated with 10% w/v, Without Electric Field, 30 mins): 3.10 Log10
